Several values for one entry are separate records, joined by “and”; a condition that tells them apart may be missing. Equal values may be shown once. Some results are limits rather than exact numbers.

Results on 15 compounds are retold here after ChEMBL document CHEMBL1134837, “A conformational and structure-activity relationship study of cytotoxic 3,5-bis(arylidene)-4-piperidones and related N-acryloyl analogues” (J Med Chem, 2001).

Test [1] in a line: Average potency of all four cell lines (P388 cell line, L1210 cell line, Molt 4/C8 cell line, CEM T-lymphocytes). In kind it is functional. More on the design: unit not given here.
Another test relates to P388. The test is described as follows: Cytotoxicity against murine P388 cells. In kind it is functional, cell-based. As to conditions: Mus musculus.
The nature of test [2]: Cytotoxicity against human Molt 4/C8 cells. The test is classed as functional, cell-based. As to conditions: Molt4/C8.
The test system of the next test is CCRF-CEM. The test is described as follows: Cytotoxicity against CEM T-lymphocytes. The test is classed as functional, cell-based. The settings on record: Homo sapiens.
Test [3] concerns L1210. The test is described as follows: Cytotoxicity against murine L1210 cells. In kind it is functional, cell-based. The settings on record: Mus musculus.
Test [4] has as its system L1210. The test is described as follows: Inhibitory effect on the biosyntheses of RNA in murine L1210 cells. In kind it is functional, cell-based. The settings on record: Mus musculus.
Test [5] deals with L1210. Put plainly: Inhibitory effect on the biosyntheses of DNA in murine L1210 cells. The test is classed as functional, cell-based. The settings on record: Mus musculus.
The subject of test [6] is L1210. The test is described as follows: Inhibitory effect on the biosyntheses of protein in murine L1210 cells. As to conditions: Mus musculus. In kind it is functional, cell-based.
For test [7], the system named is Jurkat. The test is described as follows: Inhibitory effect on the biosyntheses of protein using human Jurkat T cells. In kind it is functional.
Test [8] deals with Jurkat. Put plainly: Inhibitory effect on the biosyntheses of RNA using human Jurkat T cells. The test is classed as functional.
Test [9] concerns Jurkat. Put plainly: (§1) Cytotoxicity against human Jurkat T cells. In kind it is functional, cell-based.
Test [10] has as its system Jurkat. The description is as §1. In kind it is functional.
Test [11] can be described thus: The apoptotic index [(number of human jurkat cells with apoptotic nuclei/number of cells counted) 100]. In kind it is functional.

`COc1ccc(/C=C2\CNC/C(=C\c3ccc(OC)cc3)C2=O)cc1`: in [1], the AP was determined as 174. The compound also returned an IC50 in the test on P388 of 1.54 µM.

`C=CC(=O)N1C/C(=C\c2ccc(OC)cc2)C(=O)/C(=C/c2ccc(OC)cc2)C1`: the AP in [1] is reported as 4.36. For the same compound, the IC50 in [2] was found to be 2.27 µM; in the test with CCRF-CEM, 2.67 µM; with L1210 [3], 11.8 µM; in the test on P388, 0.68 µM.

For `C=CC(=O)N1C/C(=C\c2ccc(F)cc2)C(=O)/C(=C/c2ccc(F)cc2)C1`, in test [1], the AP is on record as 1.34. Moreover, the IC50 in test [2] amounted to 0.41 µM; with CCRF-CEM it was 0.8 µM; in the test with L1210 [3], 3.89 µM; with P388, 0.27 µM.

`C=CC(=O)N1C/C(=C\c2ccc([N+](=O)[O-])cc2)C(=O)/C(=C/c2ccc([N+](=O)[O-])cc2)C1`: the concentration for half-maximal inhibition (IC50) was 5.73 µM with L1210 [4]; 2.77 µM in the test with L1210 [5]; 0.15 µM in [2]; 0.26 µM in the test with CCRF-CEM; 0.42 µM in the test with L1210 [3]; 3.21 µM in the test on L1210 [6]. This compound came in with an IC50 in the test with P388 of 0.05 µM. This compound also registered an AP in [1] of 0.22.

Take `O=C1/C(=C/c2ccccc2)CNC/C1=C\c1ccccc1`: the AP in [1] amounted to 3.03. The same compound gave a half-inhibitory concentration (IC50) in the test on P388 of 0.77 µM.

For the compound `N[C@@H](Cc1ccc(N(CCCl)CCCl)cc1)C(=O)O`, the IC50 in the test with L1210 [4] is more than 100 µM; in the test on L1210 [5], more than 100 µM; in the test with L1210 [6] it was 94.6 µM. In addition, the Inhibition worked out at 17.3% in the test with Jurkat [7] and 85.1% with Jurkat [8]. Also, in test [1], the AP is 2.02.

For `C=CC(=O)N1C/C(=C\c2ccc(Cl)c(Cl)c2)C(=O)/C(=C/c2ccc(Cl)c(Cl)c2)C1`, the Inhibition was 58.1% with Jurkat [7] and 67.6% in the test on Jurkat [8]. Moreover, the IC50 in the test on Jurkat [9] came out at 0.58 µM; in test [2] it was 1.04 µM; in the test with CCRF-CEM, 1.08 µM; in the test with L1210 [3] it was 1.52 µM; in the test on P388, 0.05 µM. Also, the AP in test [1] is recorded as 0.92. In the test on Jurkat [10], this compound yielded an IC80 of 0.94 µM. The compound also registered an Apoptotic index in test [11] of 63.5.

Take `O=C1/C(=C/c2ccc(N3CC3)cc2)CNC/C1=C\c1ccc(N2CC2)cc1`: the IC50 is 336 µM with L1210 [4]; more than 500 µM in the test on L1210 [5]; 226 µM in test [2]; 162 µM in the test on CCRF-CEM; 240 µM in the test on L1210 [3]; 320 µM with L1210 [6]. In the test on P388, this compound gave an IC50 of 0.64 µM. In test [1], this compound had an AP of 157.

The compound `O=C1/C(=C/c2ccc(Cl)cc2)CNC/C1=C\c1ccc(Cl)cc1` showed an AP in test [1] of 16.1. Moreover, in the test with P388, the IC50 was found to be 0.74 µM.

Take `C=CC(=O)N1C/C(=C\c2ccccc2)C(=O)/C(=C/c2ccccc2)C1`: the AP in test [1] is reported as 3.3. The IC50 in test [2] is 1.42 µM; in the test with CCRF-CEM it was 1.48 µM; with L1210 [3] it was 8.69 µM; in the test with P388 it was 0.5 µM.

In turn, `C=CC(=O)N1C/C(=C\c2ccc(Cl)cc2)C(=O)/C(=C/c2ccc(Cl)cc2)C1` showed an AP in test [1] of 0.76. Besides, the IC50 worked out at 0.44 µM in [2], 0.49 µM in the test on CCRF-CEM, 1.96 µM in the test on L1210 [3] and 0.15 µM in the test with P388.

For the compound `O=C1/C(=C/c2ccc(Cl)c(Cl)c2)CNC/C1=C\c1ccc(Cl)c(Cl)c1`, the IC50 was found to be 3.09 µM in the test with Jurkat [9]; 40.2 µM in test [2]; 20.8 µM in the test on CCRF-CEM; 129 µM with L1210 [3]; 1.01 µM with P388. The AP in [1] was determined as 47.8. Also, the Inhibition in the test on Jurkat [8] is 26.4% and 31.1%. This compound also returned an IC80 with Jurkat [10] of 4.83 µM. In [11], the Apoptotic index is reported as 48.3.

`O=C1/C(=C/c2ccc(F)cc2)CNC/C1=C\c1ccc(F)cc1`: the AP in [1] stood at 11. Further, the midpoint of inhibition with P388, the IC50, lay at 0.6 µM.

`O=C1/C(=C/c2ccc([N+](=O)[O-])cc2)CNC/C1=C\c1ccc([N+](=O)[O-])cc1`: the IC50 was 276 µM with L1210 [4]; 228 µM with L1210 [5]; 8.28 µM in test [2]; 4.47 µM in the test with CCRF-CEM; 32.9 µM in the test on L1210 [3]; 214 µM in the test with L1210 [6]. In the test on P388, the IC50 came out at 0.2 µM. This compound returned an AP in test [1] of 11.5.

In test [1], `C=CC(=O)N1C/C(=C\c2ccc(N3CC3)cc2)C(=O)/C(=C/c2ccc(N3CC3)cc2)C1` had an AP of more than 353. Also, the IC50 is 369 µM in [2], more than 500 µM in the test with CCRF-CEM, more than 500 µM in the test on L1210 [3] and 43.3 µM in the test on P388.

For orientation: IC50 means the concentration needed to halve the response being measured. The Inhibition is the share of the control response that was lost under treatment. By IC80 is commonly meant the concentration needed for an effect of 80%.
